# Measurements reported in patent publication US20250295639A1, “METHODS FOR TREATING HEART DISEASES” (Cytokinetics, Incorporated, priority 2024, published 2025).
# Test system: patients with symptomatic oHCM
# Assay: SEQUOIA-HCM cardiovascular magnetic resonance (CMR) substudy
# Type: in vivo, human
# Description: A further exploratory objective of this trial was to evaluate the effect of aficamten on left ventricular mass, function, and structure by cardiac magnetic resonance (CMR) imaging, as determined by changes from baseline to Week 24 in CMR measurements of left ventricular (LV) mass index, LVEF, septal and free wall thickness, left […] volume index, LVESV, and LVEDV. Cardiac Magnetic Resonance. A CMR imaging sub-study assessed the effects of administration of aficamten dosing on cardiac morphology, function, and fibrosis in approximately 40 oHCM patients who were eligible and consented to participate. CMR was performed during screening period and Week 24. […] Effect of Aficamten on Cardiac Structure and Function in Patients with Obstructive Hypertrophic Cardiomyopathy. For some patients with HCM, adverse remodeling of cardiac structure and function occur over time and are associated with increased risk of adverse events, including heart failure, sudden death and atrial fibrillation. Eligible participants enrolled in SEQUOIA-HCM (the study of Example 8), were offered enrolment in the cardiovascular magnetic resonance (CMR) substudy with CMR performed at baseline and at Week 24. Image analysis was performed in a blinded fashion by a core laboratory.
# [1] = Echo Measurements, CMR Cohort N = 57 (Aficamten N = 25), Week 24
# [2] = Echo Measurements, CMR Cohort N = 57, vs placebo
# [3] = baseline to week 24, vs placebo
structure (smiles),measurement,setting,value
"CCc1nc(-c2ccc3c(c2)CC[C@H]3NC(=O)c2cnn(C)c2)no1 [aficamten, (R)—N-(5-(5-ethyl-1,2,4-oxadiazol-3-yl)-2,3-dihydro-1H-inden-1-yl)-1-methyl-1H-pyrazole-4-carboxamide]",LV Ejection Fraction,[1],68.2 ± 7.8%
same,LV Maximal Wall Thickness,[1],18.7 ± 3.1 mm
same,LVOT gradient at rest,[1],25 ± 25 mmHg
same,LVOT gradient with Valsalva,[1],38 ± 30 mmHg
same,"LA Volume Index, Treatment Effect",[2],−1 mL/m^2
same,"LV Ejection Fraction, Treatment Effect",[2],−3.6%
same,"LV Mass Index, Treatment Effect",[2],−10 g/m2
same,"LV Maximal Wall Thickness, Treatment Effect",[2],−1.5 mm
same,"LVOT gradient at rest, Treatment Effect",[2],−38 mmHg
same,"LVOT gradient with Valsalva, Treatment Effect",[2],−47 mmHg
same,CMR LV end-diastolic and end-systolic volumes,Week 24,no significant change
same,"CMR LV mass index, Δ least squares mean relative to placebo",Week 24,−15 g/m^2
same,"CMR left atrial volume index, Δ least squares mean relative to placebo",Week 24,−13 mL/m^2
same,"CMR maximal LV wall thickness, Δ least squares mean relative to placebo",Week 24,−2.1 mm
same,"CMR native Tl relaxation time, Δ least squares mean relative to placebo",Week 24,-37 ms
same,LV extracellular volume fraction [ECV],Week 24,0.7%
same,"LV replacement fibrosis, late gadolinium enhancement [LGE] mass",Week 24,-0.7 g
same,LGE (% of LV mass) (CMR),"Week 24, N = 21",1.4 % of LV mass
same,LGE Mass (CMR),"Week 24, N = 21",1.5 g
same,Mitral Regurgitation Fraction (CMR),"Week 24, N = 21",13%
same,Mitral Regurgitation Volume (CMR),"Week 24, N = 21",12 mL
same,"NT-proBNP, median","Week 24, N = 21",79 pg/mL
same,"NYHA Class I, patients","Week 24, N = 21",57%
same,"NYHA Class II, patients","Week 24, N = 21",29%
same,"NYHA Class III, patients","Week 24, N = 21",14%
same,Absolute myocyte mass index (CMR),"Week 24, N = 21, mean ± SD",75 ± 22 g/m^2
same,Echo LVOT Gradient at Rest,"Week 24, N = 21, mean ± SD",21 ± 18 mm Hg
same,Echo LVOT Gradient with Valsalva,"Week 24, N = 21, mean ± SD",35 ± 26 mm Hg
same,LA Volume Index (CMR),"Week 24, N = 21, mean ± SD",52 ± 14 mL/m^2
same,LV Ejection Fraction (CMR),"Week 24, N = 21, mean ± SD",73.8 ± 5.9%
same,LV End Diastolic Volume Index (CMR),"Week 24, N = 21, mean ± SD",60 ± 11 mL/m^2
same,LV End Systolic Volume Index (CMR),"Week 24, N = 21, mean ± SD",16.0 ± 5.1 mL/m^2
same,LV Extracellular Volume Fraction (CMR),"Week 24, N = 21, mean ± SD",27.4 ± 7.1%
same,LV Mass Index (CMR),"Week 24, N = 21, mean ± SD",103 ± 28 g/m^2
same,LV Maximal Wall Thickness (CMR),"Week 24, N = 21, mean ± SD",17.8 ± 4.5 mm
same,LV Native T1 (CMR),"Week 24, N = 21, mean ± SD",1021 ± 93 ms
same,LV extracellular volume mass index (CMR),"Week 24, N = 21, mean ± SD",29 ± 12 %/g/m^2
same,"Peak oxygen consumption, pVO2","Week 24, N = 21, mean ± SD",21.1 ± 4.7 mL/kg/min
same,"Absolute myocyte mass index (CMR), Treatment Effect (95% CI)",[3],"−14 (−23, −4) g/m^2"
same,"Echo LVOT Gradient at Rest, Treatment Effect",[3],−46 mm Hg
same,"Echo LVOT Gradient with Valsalva, Treatment Effect",[3],−50 mm Hg
same,"LA Volume Index (CMR), Treatment Effect",[3],−13 mL/m^2
same,"LGE (% of LV mass) (CMR), Treatment Effect (95% CI)",[3],"−0.4 (−2.1, 1.2) % of LV mass"
same,"LGE Mass (CMR), Treatment Effect (95% CI)",[3],"−0.7 (−2.9, 1.6) g"
same,"LV Ejection Fraction (CMR), Treatment Effect",[3],−2.6%
same,"LV End Diastolic Volume Index (CMR), Treatment Effect",[3],−1 mL/m^2
same,"LV End Systolic Volume Index (CMR), Treatment Effect",[3],1.4 mL/m^2
same,"LV Extracellular Volume Fraction (CMR), Treatment Effect (95% CI)",[3],"0.7 (−2.2, 3.6) %"
same,"LV Mass Index (CMR), Treatment Effect",[3],−15 g/m^2
same,"LV Maximal Wall Thickness (CMR), Treatment Effect",[3],−2.1 mm
same,"LV Native T1 (CMR), Treatment Effect (95% CI)",[3],"−37 (−69, −5) ms"
same,"LV extracellular volume mass index (CMR), Treatment Effect",[3],−3.9 %/g/m^2
same,"Mitral Regurgitation Fraction (CMR), Treatment Effect",[3],−6%
same,"Mitral Regurgitation Volume (CMR), Treatment Effect",[3],-7 mL
same,"NT-proBNP, Treatment Effect",[3],−85%
same,"Peak oxygen consumption, pVO2, Treatment Effect",[3],1.0 mL/kg/min
same,Treatment Effect ≥1 NYHA Class Improvement,[3],36%
